Data on four compounds can be found in patent US20130217778A1, “METHODS AND COMPOSITIONS FOR THE IMPROVEMENT OF SKELETAL MUSCLE FUNCTION IN A MAMMAL” (priority 2010, published 2013).

Each structure is given as a SMILES string. Some results are limits rather than exact numbers.

Holding throughout (format): cell-based
In assay [1] the test system is human Duchenne muscular dystrophy (DMD) muscle tissue (mBAM). The assay is described as follows: MFAS fatigue assay of human DMD mBAMs. The conditions noted are these: low concentrations, FIGS. 10A-10C. The procedure: (§1) High glucose tissue culture medium (4.5 g/l) was used in all experiments to maintain glucose levels well above normal human blood plasma levels (0.9 to 1.8 g/l) and, thereby, minimize drug action through increased glucose availability to the muscle cells. Varying concentrations of metformin (Sigma-Aldrich Cat. No. D15,095-9; 1,1-dimethylbiguanide hydrochloride) were added to tissue culture medium of mBAMs when the mBAMs had reached a plateau of maximal tetanic force, which was measured in a MyoForce Analysis System (MFAS™) 24 hours later. Every 24 hours, fresh metformin was added to fresh tissue culture medium, and tetanic forces were measured every 24 hours for 3-4 days. Fatigue was assayed after 3-4 days of metformin treatment by 15-20 repetitive tetanic stimulations of each mBAM at 14V, 60 Hz for 2 seconds every 4-5 seconds. Force is determined after each stimulation and compared to the initial force determined after the first stimulation relative to untreated controls. (Mean±S.E.M. of 3-8 samples per group was calculated and statistical analyses performed by t-tests.)
The immortalized muscle cells were tissue engineered into contractile muscle tissue (mBAMs), and muscle force and fatigue were measured as described above. High glucose tissue culture medium (4.5 g/l) was used to maintain glucose levels well above normal human blood plasma levels (0.9 to 1.8 g/l) and, thereby, minimize drug action through increased glucose availability to the muscle cells. […] Every 24 hours, fresh biguanide was added in fresh medium and tetanic force measured for a total of 3-4 days.

Assay [2] deals with normal human muscle tissue (mBAM). As to the kind of experiment: MFAS tetanic force of mBAMs from normal human vastus lateralis muscle cells. As to conditions: 3-4 days of exposure, FIGS. 7A-7D. The procedure: as §1
Assay [3] concerns mdx murine muscle tissue (mBAM). The assay is described as follows: MFAS maximal tetanic force of mBAMs from mdx mouse muscle cells. As to conditions: low concentrations experiment, four days of exposure, FIG. 4A. The source says: (§2) Conditionally immortalized skeletal muscle cells from the mdx mouse muscle (Morgan et al., Dev Biol. 162: 486-498, 1994) were tissue engineered into contractile muscle tissue (mBAMs), as described herein. (See also, e.g., Vandenburgh et al., Muscle and Nerve 37: 438-447, 2008; Vandenburgh et al., Treat NMD Meeting, 2009). Briefly, several hundred thousand proliferating myoblasts were mixed with a solution of extracellular matrix (collagen or fibrin) and pipetted into custom wells containing two flexible “posts” (FIG. 1A). The cell/matrix mixture gelled around the tops of the posts, forming a defined tubular structure (FIG. 1B). […] Maximal tetanic force (i.e., muscle strength) was measured by imaging the deflection of the attachment posts and converting the distance of deflection into force, as illustrated in FIGS. 2A-2B.
(§3) High glucose tissue culture medium (4.5 g/l) was used in all experiments to maintain glucose levels well above normal human blood plasma levels (0.9 to 1.8 g/l) and, thereby, minimize drug action through increased glucose availability to the muscle cells. Varying concentrations of metformin (Sigma-Aldrich Cat. No. D15,095-9; 1,1-dimethylbiguanide hydrochloride) were added to tissue culture medium of mBAMs when the mBAMs had reached a plateau of maximal tetanic force, which was measured in a MyoForce Analysis System (MFAS™) 24 hours later. […]

Assay [4] deals with normal mouse skeletal muscle tissue (mBAM). The assay is described as follows: MFAS tetanic force of mBAMs from normal mouse leg muscle cells. The protocol:
as §1
High glucose tissue culture medium (4.5 g/l) was used in all experiments to maintain glucose levels well above normal human blood plasma levels (0.9 to 1.8 g/l) and, thereby, minimize drug action through increased glucose availability to the muscle cells.

The test system of assay [5] is mdx murine skeletal muscle tissue (mBAM). As to the kind of experiment: MFAS fatigue assay (repetitive tetanic stimulation) of mdx mouse mBAMs. As to conditions: repetitive tetanic stimulation after 3-4 days of treatment, FIG. 4B.
Description: as §2, §3

The test system of assay [6] is human Duchenne muscular dystrophy (DMD) muscle tissue (mBAM). The assay is described as follows: MFAS tetanic force of mBAMs from immortalized Duchenne muscular dystrophy muscle cells. The conditions noted are these: 3-4 days of exposure, FIGS. 9A, 9B, 9D. The procedure:
as §1
The immortalized muscle cells were tissue engineered into contractile muscle tissue (mBAMs), and muscle force and fatigue were measured as described above. […] Every 24 hours, fresh biguanide was added in fresh medium and tetanic force measured for a total of 3-4 days.

As for `CCCCNC(=N)NC(=N)N` [buformin, Buformin], the “effect on the rate of muscle fatigue with repetitive stimulations” value (shortened to “effect on the rate of muscle fatigue”) in assay [1] is “decreased the rate of muscle fatigue”. Besides, in assay [2], the “concentrations that increased tetanic force generated by the muscle tissue” value is recorded as “less than 0.1 μg/ml”.
In the case of `CN(C)C(=N)NC(=N)N` [metformin, 1,1-dimethylimido-dicarbonimidic diamide], the “concentration that significantly increased maximal tetanic force generated by mBAM muscle tissue” value in assay [3] was determined as 0.0006 µg/mL. In addition, the “concentration that increased tetanic force generated by the muscle tissue” value in assay [4] (3-4 days of exposure, FIGS. 5A-5B) came to 0.0006 µg/mL. Further, in assay [1], the “effect on the rate of muscle fatigue” value is recorded as “decreased the rate of muscle fatigue”. Moreover, in assay [5], the “concentration that significantly decreased the rate of muscle fatigue” value was found to be 0.000001 µg/mL.
As for `N=C(N)NC(=N)NCCc1ccccc1` [phenformin, Phenformin], the “effect on the rate of muscle fatigue” value in assay [1] is on record as “decreased the rate of muscle fatigue”.
In the case of `CC(C)NC(=N)NC(=N)Nc1ccc(Cl)cc1` [proguanil, 1-(4-chlorophenyl)-5-isopropyl-biguanide], the “concentration that significantly increased tetanic force” value in assay [4] (after 3 days of treatment, FIG. 5C) was 0.001 µg/mL. Besides, the “concentrations that increased tetanic force generated by the muscle tissue” value in assay [2] was “less than 0.0001 μg/ml”; in assay [6] it was not above 0.00006 µg/mL.
